Structures are written as SMILES. pIC50: −log10 of the molar value. A value given as a limit tells only on which side of the number the result lay.

The first assay deals with phospho-serine 2056 DNA-PK in HCT116 cells. Briefly: DNA-PK phosphorylation at serine 2056 (cellular), ELISA in bleomycin-treated HCT116 cells. It counts as cell-based. Particulars: Homo sapiens, HCT-116, 6 h, cellular; HCT116 cells, 10 μM bleomycin, six hours; read-out: IC50 pDNA-PK. As for the experimental part:
HCT116 cells were cultivated at 37° C. and 10% CO2 in MEM alpha medium with 10% of foetal calf serum and 2 mM glutamine. The cells were detached from the base of the culture vessels with the aid of trypsin/EDTA, centrifuged off in centrifuge tubes, taken up in fresh medium, and the cell density was determined. 100,000 cells were sown in 1 ml of culture medium per cavity of a 24-well cell culture plate and cultivated overnight. Next day, 10 μM bleomycin (DNA intercalator and inductor of DNA double-strand breaks) and test substances in fresh culture medium were added to the cells, and these were cultivated for a further six hours. […] The 96-well ELISA plates were subsequently treated with a detection antibody (Abcam ab79444: total DNA-PK) and a streptavidin-HRP conjugate. The development of the enzymatic reaction was carried out with the aid of a chemiluminescent reagent, the chemiluminescence was measured with the aid of a Mithras LB940. The signals with the phospho-DNA-PK-specific antibody were standardised to the signal with the antibody against the total protein DNA-PKc. […] The DMSO control was used as blank.
In the case of `COc1ncc(Cl)nc1C(O)c1ccc(F)c(-c2ncnc3cc(N4CCOCC4)ccc23)c1` (stereo not shown) [Example 25, (6-Chloro-3-methoxy-pyrazin-2-yl)-[4-fluoro-3-(7-morpholin-4-yl-quinazolin-4-yl)phenyl]-methanol], the negative-log IC50 (pIC50) is over 6.30.
As for `COc1ccc([C@H](O)c2ccc(F)c(-c3ncnc4cc(N5CCOCC5)ccc34)c2)nn1` [Example 71, (R)-[4-Fluoro-3-(7-morpholin-4-yl-quinazolin-4-yl)phenyl]-(6-methoxypyridazin-3-yl)methanol], the pIC50 was 5.30 to 6.30.
Consider `COc1cncnc1C(O)c1ccc(F)c(-c2ncnc3cc(N4CCOCC4)ccc23)c1` (stereo not shown) [Example 87, [4-Fluoro-3-(7-morpholin-4-yl-quinazolin-4-yl)-phenyl]-(5-methoxy-pyrimidin-4-yl)-methanol], for which the pIC50 is over 6.30.

Still in this assay, the particulars now being: Homo sapiens, HCT-116, cellular DNA-PK phosphorylation at serine 2056, HCT116 cells; read-out: IC50 pDNA-PK.
Regarding `CCOc1cccnc1C(O)c1ccc(F)c(-c2ncnc3cc(N4CCOCC4)ccc23)c1` (stereo not shown) [Example 463, (3-Ethoxy-pyridin-2-yl)-[4-fluoro-3-(7-morpholin-4-yl-quinazolin-4-yl)-phenyl]methanol], the pIC50 was over 6.30.
The same measure, in the same setting: under `OC(c1cn2ccsc2n1)c1cc(-c2ncnc3cc(N4CCOCC4)ccc23)c(F)cc1F` (stereo not shown) [Example 474, [2,4-Difluoro-5-(7-morpholin-4-yl-quinazolin-4-yl)-phenyl]imidazo-[2,1-b]thiazol-6-yl-methanol] stands 4.52 to 5.00; under `Cc1nccnc1C(O)c1cc(-c2ncnc3cc(N4CCOCC4)ccc23)ccc1Cl` (stereo not shown) [Example 426, [2-Chloro-5-(7-morpholin-4-yl-quinazolin-4-yl)-phenyl]-(3-methyl-pyrazin-2-yl)-methanol (Ena 2)], 5.30 to 6.30.
Take `Cn1cnc2c(C(O)c3cc(-c4ncnc5cc(N6CCOCC6)ccc45)ccc3Cl)ncnc21` (stereo not shown) [Example 371, [2-Chloro-5-(7-morpholin-4-yl-quinazolin-4-yl)-phenyl]-(9-methyl-9H-purin-6-yl)-methanol]: the pIC50 is 5.30 to 6.30.
In the case of `Cn1ncc2c(C(O)c3cc(-c4ncnc5cc(N6CCOCC6)ccc45)c(F)cc3Cl)ncnc21` (stereo not shown) [Example 402, [2-Chloro-4-fluoro-5-(7-morpholin-4-yl-quinazolin-4-yl)-phenyl]-(1-methyl-1H-pyrazolo[3,4-d}-pyrimidin-4-yl)-methanol], the pIC50 is 5.30 to 6.30.
As for `COc1nccnc1C(O)c1cc(-c2ncnc3cc(N4CCOCC4)ccc23)ccc1Cl` (stereo not shown) [Example 410, [2-Chloro-5-(7-morpholin-4-yl-quinazolin-4-yl)-phenyl]-(3-methoxy-pyrazin-2-yl)-methanol (Ena 2)], the pIC50 is over 6.30.
Consider `COc1cncnc1C(O)c1cc(-c2ncnc3cc(N4CCOCC4)ccc23)c(F)cc1F` (stereo not shown) [Example 448, [2,4-Difluoro-5-(7-morpholin-4-yl-quinazolin-4-yl)-phenyl]-(5-methoxy-pyrimidin-4-yl)-methanol], for which the negative logarithm of the IC50 (pIC50) was 5.30 to 6.30.

Staying with this assay, now noted: Homo sapiens, HCT-116, phospho-serine 2056 DNA-PK, bleomycin-treated HCT116 cells; class symbols A-D; read-out: IC50 pDNA-PK.
Regarding `C#CC(O)(c1ccc(OC)nn1)c1cc(-c2ncnc3cc(N4CCOCC4)ccc23)c(F)cc1Cl` (stereo not shown) [Example 122, 1-[2-Chloro-4-fluoro-5-(7-morpholin-4-yl-quinazolin-4-yl)-phenyl]-1-(6-methoxy-pyridazin-3-yl)-prop-2-yn-1-ol], the pIC50 is 5.30 to 6.30.
As to `OC(c1nccs1)c1cc(-c2ncnc3cc(N4CCOCC4)ccc23)ccc1F` (stereo not shown) [Example 170, [2-Fluoro-5-(7-morpholin-4-yl-quinazolin-4-yl)-phenyl]thiazol-2-yl-methanol], the pIC50 is 5.00 to 5.30.
For the molecule `OC(c1ccc(OC2COC2)nn1)c1cc(-c2ncnc3cc(N4CCOCC4)ccc23)c(F)cc1Cl` (stereo not shown) [Example 100, [2-Chloro-4-fluoro-5-(7-morpholin-4-yl-quinazolin-4-yl)-phenyl]-[6-(oxetan-3-yloxy)pyridazin-3-yl]-methanol], the pIC50 was over 6.30.
Consider `OC(c1cn2ccnc2cn1)c1cc(-c2ncnc3cc(N4CCOCC4)ccc23)c(F)cc1F` (stereo not shown) [Example 223, [2,4-Difluoro-5-(7-morpholin-4-yl-quinazolin-4-yl)-phenyl]imidazo-[1,2-a]pyrazin-6-yl-methanol], for which the negative logarithm of the IC50 (pIC50) is 5.30 to 6.30.
For the molecule `COc1cc(C)c(C(O)c2cc(-c3ncnc4cc(N5CCOCC5)ccc34)c(F)cc2Cl)nn1` (stereo not shown) [Example 109, [2-Chloro-4-fluoro-5-(7-morpholin-4-yl-quinazolin-4-yl)-phenyl]-(6-methoxy-4-methylpyridazin-3-yl)methanol], the pIC50 was 5.00 to 5.30.
On the same count and under the same terms, under `O=C(O)COc1ccc(C(O)c2cc(-c3ncnc4cc(N5CCOCC5)ccc34)c(F)cc2Cl)nn1` (stereo not shown) [Example 113, (6-{[2-Chloro-4-fluoro-5-(7-morpholin-4-yl-quinazolin-4-yl)-phenyl]hydroxy-methyl}pyridazin-3-yl-oxy)acetic acid] stands 4.52 to 5.00.

The same assay, now with this note: Homo sapiens, HCT-116, phospho-serine 2056 DNA-PK, bleomycin-treated HCT116 cells; read-out: IC50 pDNA-PK.
On to `Cc1cnc(C(C(N)=O)c2cc(-c3ncnc4cc(N5CCOCC5)ccc34)c(F)cc2Cl)c(C)n1` (stereo not shown) [Example 301, 2-[2-Chloro-4-fluoro-5-(7-morpholin-4-yl-quinazolin-4-yl)-phenyl]-2-(3,5-dimethyl-pyrazin-2-yl)acetamide], for which the pIC50 was 5.30 to 6.30.
With `NC(=O)C(c1ccc(F)c(-c2ncnc3cc(N4CCOCC4)ccc23)c1)c1nnc(Cl)c2ccsc12` (stereo not shown) [Example 290, 2-(4-Chlorothieno-[2,3-d}pyridazin-7-yl)-2-[4-fluoro-3-(7-morpholin-4-yl-quinazolin-4-yl)-phenyl]acetamide], the pIC50 was 5.00 to 5.30.
Take `NC(=O)C(c1cccnc1)c1ccc(F)c(-c2ncnc3cc(N4CCOCC4)ccc23)c1` (stereo not shown) [Example 295, 2-[4-Fluoro-3-(7-morpholin-4-yl-quinazolin-4-yl)-phenyl]-2-pyridin-3-ylacetamide]: the pIC50 is 4.52 to 5.00.
Turning to `Cc1nccnc1Cc1ccc(F)c(-c2ncnc3cc(N4CCOCC4)ccc23)c1` [Example 349, 4-[2-Fluoro-5-(3-methyl-pyrazin-2-ylmethyl)phenyl]-7-morpholin-4-yl-quinazoline], the pIC50 is over 6.30.
Consider `Cn1c(C(O)c2ccc(F)c(-c3ncnc4cc(N5CCOCC5)ccc34)c2)nccc1=O` (stereo not shown) [Example 360, 2-([4-Fluoro-3-(7-morpholin-4-yl-quinazolin-4-yl)-phenyl]hydroxy-methyl}-3-methyl-3H-pyrimidin-4-one], for which the pIC50 is 5.30 to 6.30.

Staying with this assay, now noted: cellular DNA-PK phosphorylation at serine 2056, HCT116 cells; read-out: IC50 pDNA-PK.
For `Cn1c(C(O)c2cc(-c3ncnc4cc(N5CCOCC5)ccc34)c(F)cc2F)cccc1=O` (stereo not shown) [Example 381, 6-{[2,4-Difluoro-5-(7-morpholin-4-yl-quinazolin-4-yl)-phenyl]hydroxy-methyl}-1-methyl-1H-pyridin-2-one (Ena 1)], the pIC50 was 5.30 to 6.30.
For `OC(c1ccc(F)c(-c2ncnc3cc(N4CCOCC4)ccc23)c1)c1nccnc1I` (stereo not shown) [Example 462, [4-Fluoro-3-(7-morpholin-4-yl-quinazolin-4-yl)-phenyl]-(3-iodo-pyrazin-2-yl)-methanol], the pIC50 was over 6.30.

The assay is the same for the next values; noted with them: phospho-serine 2056 DNA-PK, bleomycin-treated HCT116 cells; class symbols A-D; read-out: IC50 pDNA-PK.
Consider `OC(c1ccc(F)c(-c2ncnc3cc(N4CCOCC4)sc23)c1)c1nccs1` (stereo not shown) [Example 146, [4-Fluoro-3-(6-morpholin-4-yl-thieno[3,2-d}-pyrimidin-4-yl)-phenyl]thiazol-2-yl-methanol], for which the pIC50 is 5.30 to 6.30.
Turning to `COc1ccc(C(O)c2cc(-c3ncnc4cc(N5CCOCC5)sc34)c(F)cc2Cl)nn1` (single isomer, unassigned) [Example 126, [2-Chloro-4-fluoro-5-(6-morpholin-4-ylthieno[3,2-d}-pyrimidin-4-yl)-phenyl]-(6-methoxy-pyridazin-3-yl)-methanol], the pIC50 was over 6.30.
